Like-named read-outs stand apart in the source and are kept apart here.
Experiments:
[1] = set-up: species or system male mice; conditions: mouse, in vivo
[2] = set-up: species or system mice and rats; conditions: in vivo
[3] = set-up: species or system male white mice; conditions: mouse, in vivo
[4] = set-up: species or system male rats (SIV; printed "rate"); conditions: rat, in vivo
[5] = set-up: species or system male mice (NMRI); conditions: in vivo
in vivo = conditions: mouse

CCOC(=O)C1(c2ccccc2)CCN(C)CC1 [Dolantin, Ethyl 1-methyl 4-phenyl-piperidin-4-carboxylate]
Analgesia ED 50 Phenyl-p-Quinone Writhing Test ([1]; po): 28.5 mg/kg | Analgesia ED 50 Phenyl-p-Quinone Writhing Test ([1]; sc): 6.3 mg/kg | Neuroleptic activity (in words) [2]: no significant neuroleptic activity | Reduction of Spontaneous Motility by % Photocage [3]: no effect | Reduction of Spontaneous Motility by % Photocage ([3]; sc, 15 mg/kg): 30% | Decrease in Body Temperature in ° C [4]: no effect | Decrease in Body Temperature in ° C ([4]; sc): no effect | Aggressive Mouse ED 50 [5]: no effect | Aggressive Mouse ED 50 ([5]; sc, 30 min): > 15 mg/kg | LD50 at 48 h (in vivo; po): 252 mg/kg | LD50 at 48 h (in vivo; sc): 154 mg/kg

CCOC(=O)[C@]1(c2ccccc2)C=C[C@@H](N2CCC(c3ccccc3)CC2)CC1 (relative stereo) [4r-(4'-Phenyl-piperidino-1')-1c-phenyl-1t-ethoxycarbonyl-cyclohexene-(2)]
Analgesia ED 50 Phenyl-p-Quinone Writhing Test ([1]; po): ca. 75.0 mg/kg | Reduction of Spontaneous Motility by % Photocage ([3]; 100 mg/kg): 79% | Decrease in Body Temperature in ° C [4]: no effect | Aggressive Mouse ED 50 [5]: no effect | LD50 at 48 h (in vivo; po): 850 mg/kg

CCOC(=O)[C@]1(c2ccccc2)C=C[C@@H](N2CCN(c3ccccc3)CC2)CC1 (relative stereo) [4r-(4'-Phenyl-piperazino-1')-1c-phenyl-1t-cyclohexene-(2)]
Analgesia ED 50 Phenyl-p-Quinone Writhing Test ([1]; po): > 50.0 mg/kg | Reduction of Spontaneous Motility by % Photocage ([3]; 10 mg/kg): 34% | Reduction of Spontaneous Motility by % Photocage ([3]; sc, 5 mg/kg): no effect | Decrease in Body Temperature in ° C ([4]; 200 mg/kg): -1.7 °C | LD50 at 48 h (in vivo; po): ~1600 mg/kg

CCOC(=O)[C@]1(c2ccccc2)C=C[C@H](N2CCN(c3ccccc3)CC2)CC1 (relative stereo) [Example 5, 4r-(4'-Phenylpiperazino-1')-1t-phenyl-1c-ethoxycarbonylcyclohexene-(2)]
Analgesia ED 50 Phenyl-p-Quinone Writhing Test ([1]; po): 25.0 mg/kg | Reduction of Spontaneous Motility by % Photocage ([3]; 10 mg/kg): 59% | Reduction of Spontaneous Motility by % Photocage ([3]; 50 mg/kg): 94% | Reduction of Spontaneous Motility by % Photocage ([3]; sc, 5 mg/kg): 71% | Decrease in Body Temperature in ° C ([4]; 100 mg/kg): -2.6 °C | Aggressive Mouse ED 50 ([5]; po, 30 min): 25 mg/kg | LD50 at 48 h (in vivo; po): 1600 mg/kg

CCOC(=O)[C@]1(c2ccccc2)C=C[C@H](N2CCCCC2)CC1 (relative stereo) [Example 2, 4r-(Piperidino-1')-1t-phenyl-1c-ethoxycarbonyl-cyclohexene-(2)]
Analgesia ED 50 Phenyl-p-Quinone Writhing Test ([1]; sc): 5.3 mg/kg | Reduction of Spontaneous Motility by % Photocage ([3]; sc, 10 mg/kg): 93% | Decrease in Body Temperature in ° C ([4]; sc, 25 mg/kg): -1.6 °C | Aggressive Mouse ED 50 ([5]; sc, 30 min): 8.0 mg/kg | LD50 at 48 h (in vivo; sc): 150 mg/kg

CCOC(=O)[C@]1(c2ccccc2)C=C[C@@H](N2CCN(c3ccccc3OC)CC2)CC1 (relative stereo) [4r-[4'-(2-Methoxy-phenyl)piperazino-1']-1c-phenyl-1t-ethoxycarbonyl-cyclohexene-(2)]
Analgesia ED 50 Phenyl-p-Quinone Writhing Test ([1]; po): > 150.00 mg/kg | Reduction of Spontaneous Motility by % Photocage ([3]; 50 mg/kg): 17% | LD50 at 48 h (in vivo; po): > 1600 mg/kg

CCOC(=O)[C@]1(c2ccccc2)C=C[C@@H](N(C)C)CC1 (relative stereo) [4r-Dimethyl-amino-1c-phenyl-1t-ethoxycarbonyl-cyclohexene-(2)]
Analgesia ED 50 Phenyl-p-Quinone Writhing Test ([1]; po): 118.0 mg/kg | Analgesia ED 50 Phenyl-p-Quinone Writhing Test ([1]; sc): 14.6 mg/kg | Reduction of Spontaneous Motility by % Photocage ([3]; sc, 5 mg/kg): 0% | Reduction of Spontaneous Motility by % Photocage ([3]; sc, 20 mg/kg): 25% | Decrease in Body Temperature in ° C ([4]; sc): no effect | Aggressive Mouse ED 50 ([5]; sc): no effect | LD50 at 48 h (in vivo; po): 490 mg/kg | LD50 at 48 h (in vivo; sc): 136 mg/kg

CCOC(=O)[C@]1(c2ccccc2)C=C[C@H](N2CCC(c3ccccc3)CC2)CC1 (relative stereo) [Example 3, 4r-(4'-Phenylpiperidino-1')-1t-phenyl-1c-ethoxycarbonylcyclohexene-(2)]
Analgesia ED 50 Phenyl-p-Quinone Writhing Test ([1]; po): 10.0 mg/kg | Reduction of Spontaneous Motility by % Photocage ([3]; 25 mg/kg): 91% | Decrease in Body Temperature in ° C ([4]; 50 mg/kg): -0.5 °C | Aggressive Mouse ED 50 ([5]; po, 30 min): 30 mg/kg | LD50 at 48 h (in vivo; po): 800 mg/kg

CCOC(=O)[C@]1(c2ccccc2)C=C[C@H](N(C)C)CC1 (relative stereo) [Example 1, 4r-Dimethylamino-1t-phenyl-1c-ethoxycarbonyl-cyclohexene-(2)]
Analgesic potency/activity (in words) [1]: more potent analgesics than (±)-3r-dimethylamino-4c-phenyl-4t-ethoxycarbonyl-cyclohexene-(1) (Valoron ^R), a positional isomer of the former and Dolantin ^R | Analgesia ED 50 Phenyl-p-Quinone Writhing Test ([1]; po): 13.6 mg/kg | Analgesia ED 50 Phenyl-p-Quinone Writhing Test ([1]; sc): 3.0 mg/kg | Reduction of Spontaneous Motility by % Photocage ([3]; sc, 5 mg/kg): 38% | Reduction of Spontaneous Motility by % Photocage ([3]; sc, 10 mg/kg): 82% | Decrease in Body Temperature in ° C ([4]; sc, 20 mg/kg): -1.4 °C | Aggressive Mouse ED 50 ([5]; sc, 30 min): 4.0 mg/kg | LD50 at 48 h (in vivo; po): 297 mg/kg | LD50 at 48 h (in vivo; sc): 155 mg/kg

CCOC(=O)[C@]1(c2ccccc2)C=C[C@H](N2CCN(c3ccccc3OC)CC2)CC1 (relative stereo) [Example 4, 4r-[4'-(2-Methoxyphenyl)piperazino-1']-1t-phenyl-1c-ethoxycarbonyl-cyclohexene-(2)]
Analgesia ED 50 Phenyl-p-Quinone Writhing Test ([1]; po): 50.0 mg/kg | Reduction of Spontaneous Motility by % Photocage ([3]; 50 mg/kg): 86% | LD50 at 48 h (in vivo; po): ~2000 mg/kg

CCOC(=O)[C@]1(c2ccccc2)C=C[C@@H](N2CCCCC2)CC1 (relative stereo) [4r-(Piperidino-1')-1c-phenyl-1t-ethoxycarbonyl-cyclohexene-(2)]
Analgesia ED 50 Phenyl-p-Quinone Writhing Test ([1]; sc): > 20.0 mg/kg | Reduction of Spontaneous Motility by % Photocage ([3]; sc, 40 mg/kg): 11% | Decrease in Body Temperature in ° C ([4]; sc, 50 mg/kg): -0.1 °C | Aggressive Mouse ED 50 ([5]; sc): no effect | LD50 at 48 h (in vivo; sc): 390 mg/kg
